Source: patent US7250410B2, “Cyclic nucleotide phosphodiesterase inhibitors, preparation and uses thereof” (Via Pharmaceuticals, Inc., priority 2001, dated 2007)
Several values for one entry are separate records, joined by “and”; a condition that tells them apart may be missing. Identical values can stand only once.

target: PDE4; assay: Inhibition of PDE4, radioenzymatic phosphodiesterase assay; assay type: biochemical, bovine; settings: Table 1, formula (III); 1 μM cyclic AMP
Experimental: A 3 g segment of bovine aortic media cut into pieces with scissors was homogenized with an ultra-turrax then a potter glass/glass homogenizer in 7 volumes by weight of buffer A containing a protease inhibitor cocktail (20 mM Tris-HCl, 0.25 M saccharose, 2 mM magnesium acetate, 1 mM dithiothreitol, 5 mM EGTA, 2000 U/ml aprotinin, 10 mg/l leupeptin and 10 mg/l soya trypsic inhibitor). The homogenizate was centrifuged at 105,000 g for 1 hour. […] The column was washed until there was no detectable absorption at 280 nm, then eluted with a linear gradient of NaCl (0–0.5 M) in buffer B. 3-ml fractions were collected and enzyme activity was determined under the conditions described hereinafter to localize the different enzymes PDE1, PDE3, PDE4 and PDE5, which were aliquoted and frozen at −80° C.
The nucleoside formed was separated from the nucleotides by anion exchange chromatography. Nucleoside radioactivity was determined by liquid scintillation counting.

`COc1cc2c(cc1OC)C(c1ccc(-c3cccc(C)c3)cc1)=NN(C)C(=O)C2` [IIIar, 7,8-dimethoxy-3-methyl-1-[4-(3-methylphenyl)phenyl]-3,5-dihydro-4H-2,3-benzodiazepin-4-one] and `COc1cccc(-c2ccc(C3=NN(C)C(=O)Cc4cc(OC)c(OC)cc43)cc2)c1` [IIIaj, 7,8-dimethoxy-1-[4-(3-methoxyphenyl)phenyl]-3-methyl-3,5-dihydro-4H-2,3-benzodiazepin-4-one] are within 1.5-fold of each other in IC50: 2.9 µM for the first, 2.7 µM for the second.

`COc1cc2c(cc1OC)C(c1ccc(-c3ccc(C(C)=O)cc3)cc1)=NN(C)C(=O)C2` [IIIal, 1-[4-(4-acetylphenyl)phenyl]-7,8-dimethoxy-3-methyl-3,5-dihydro-4H-2,3-benzodiazepin-4-one] and `COc1cc2c(cc1OC)C(c1ccc(-c3ccc(C)cc3)cc1)=NN(C)C(=O)C2` [IIIas, 7,8-dimethoxy-3-methyl-1-[4-(4-methylphenyl)phenyl]-3,5-dihydro-4H-2,3-benzodiazepin-4-one] are within 1.5-fold of each other in IC50: 2.4 µM for the first, 2.9 µM for the second.

`COc1cc2c(cc1OC)C(c1ccc(-c3cccc(C(F)(F)F)c3)cc1)=NN(C)C(=O)C2` [IIIap, 1-[4-[3-(trifluoromethyl)phenyl]phenyl]-7,8-dimethoxy-3-methyl-3,5-dihydro-4H-2,3-benzodiazepin-4-one] and `COc1cc2c(cc1OC)C(c1ccc(-c3ccc(Cl)cc3)cc1)=NN(C)C(=O)C2` [IIIat, 1-[4-(4-chlorophenyl)phenyl]-7,8-dimethoxy-3-methyl-3,5-dihydro-4H-2,3-benzodiazepin-4-one] are within 1.5-fold of each other in IC50: 1.9 µM for the first, 2.3 µM for the second.

`CCOc1cc2c(cc1OCC)C(c1cc3ccccc3s1)=NN(C)C(=O)C2` [IIIba, 1-(2-benzo[b]thienyl)-7,8-diethoxy-3-methyl-3,5-dihydro-4H-2,3-benzodiazepin-4-one] and `COc1cc2c(cc1OC)C(c1cccc3ccccc13)=NN(C)C(=O)C2` [IIIaa, 7,8-dimethoxy-3-methyl-1-(1-naphthyl)-3,5-dihydro-4H-2,3-benzodiazepin-4-one] are within 1.5-fold of each other in IC50: 6.9 µM for the first, 9.3 µM for the second.

Compound `COc1cc2c(cc1OC)C(c1ccc(-c3ccccc3OC)cc1)=NN(C)C(=O)C2` [IIIai, 7,8-dimethoxy-1-[4-(2-methoxyphenyl)phenyl]-3-methyl-3,5-dihydro-4H-2,3-benzodiazepin-4-one] has an IC50 of 1.8 µM.

same assay, conditions: Table 1, formula (III); compound at 10 μM

`CCCN1N=C(c2ccccc2)c2cc(OC)c(OC)cc2CC1=O` [IIIaf, 7,8-dimethoxy-1-phenyl-3-n-propyl-3,5-dihydro-4H-2,3-benzodiazepin-4-one] was tested, and the “PDE4 percentage inhibition at 10 μM” value was 30%.

same assay, conditions: Table 2, formula (XXII); 1 μM cyclic AMP

`COc1cc2c(cc1OC)C(c1cccc(Br)c1)=NCC(=O)N2` [XXIIak, 5-(3-bromophenyl)-7,8-dimethoxy-1,3-dihydro-2H-1,4-benzodiazepin-2-one] and `COc1cc2c(cc1OC)C(c1ccc(Br)cc1)=NCC(=O)N2` [XXIIaf, 5-(4-bromophenyl)-7,8-dimethoxy-1,3-dihydro-2H-1,4-benzodiazepin-2-one] are within 1.5-fold of each other in IC50: 13 µM for the first, 15 µM for the second.

Work on `CCOc1cc2c(cc1OC)C(c1ccccc1)=NC(Cc1ccccc1)C(=O)N2` (centres unmarked) [XXIIbb, 3-benzyl-8-ethoxy-7-methoxy-5-phenyl-1,3-dihydro-2H-1,4-benzodiazepin-2-one] yielded an IC50 of 15 µM.

same assay, conditions: Table 2, formula (XXII); compound at 10 μM

Going from `COc1cc2c(cc1OC)C(c1ccccc1)=N[C@@H](CCCCN)C(=O)N2` [XXIIaw, (S)-3-(4-aminobutyl)-7,8-dimethoxy-5-phenyl-1,3-dihydro-2H-1,4-benzodiazepin-2-one] to `COc1cc2c(cc1OC)C(c1ccccc1)=N[C@@H](CCCCNC(C)=O)C(=O)N2` [XXIIax, (S)-N-[4-(7,8-dimethoxy-2-oxo-5-phenyl-2,3-dihydro-1H-1,4-benzodiazepin-3-yl)butyl]acetamide], the “PDE4 percentage inhibition at 10 μM” value rises from 4% to 6%.

First: O=C1CN=C(c2cccc(C(F)(F)F)c2)c2cc(I)ccc2N1 [XXIIac, 7-iodo-5-[3-(trifluoromethyl)phenyl]-1,3-dihydro-2H-1,4-benzodiazepin-2-one]
Second: COc1ccc2c(c1)NC(=O)CN=C2c1ccccc1 [XXIIan, 8-methoxy-5-phenyl-1,3-dihydro-2H-1,4-benzodiazepin-2-one]
The “PDE4 percentage inhibition at 10 μM” value of the first is higher: 35% for the first, 12.1% for the second.

Compared with `CCOc1cc2c(cc1OC)NC(=O)CN=C2c1ccccc1` [XXIIbc, 5-phenyl-7-ethoxy-8-methoxy-1,3-dihydro-2H-1,4-benzodiazepin-2-one], `O=C1CN=C(c2ccccc2)c2cc3c(cc2N1)OCCO3` [XXIIah, 10-phenyl-2,3,6,8-tetrahydro-7H-[1,4]dioxino[2,3-h][1,4]benzodiazepin-7-one] is higher in “PDE4 percentage inhibition at 10 μM” value: 10% for the first, 21.2% for the second.

With `COc1cc2c(cc1OC)C(c1ccccc1)=N[C@@H](CCCCNC(=N)N)C(=O)N2.O=C(O)C(F)(F)F.O=C(O)C(F)(F)F` [XXIIay, N-[4-(7,8-dimethoxy-2-oxo-5-phenyl-2,3-dihydro-1H-1,4-benzodiazepin-3-yl)butyl]guanidinium (S)-bis trifluoroacetate] the “PDE4 percentage inhibition at 10 μM” value was 19.6%.

same assay, conditions: Table 3, formula (II); 1 μM cyclic AMP

`COc1cc2c(cc1OC)N(C)C(=O)CN=C2c1cccc(Br)c1` [IIax, 5-(3-bromophenyl)-7,8-dimethoxy-1-methyl-1,3-dihydro-2H-1,4-benzodiazepin-2-one] and `CCN1C(=O)CN=C(c2cccc(Br)c2)c2cc(OC)c(OC)cc21` [IIbm, 5-(3-bromophenyl)-1-ethyl-7,8-dimethoxy-1,3-dihydro-2H-1,4-benzodiazepin-2-one] are within 1.5-fold of each other in IC50: 8.2 µM for the first, 7.3 µM for the second.

Compared with `CCN1C(=O)C(Cc2ccccc2Cl)N=C(c2ccccc2)c2cc(OC)c(OC)cc21` (centres unmarked) [IIcy, 3-(2-chlorobenzyl)-1-ethyl-7,8-dimethoxy-5-phenyl-1,3-dihydro-2H-1,4-benzodiazepin-2-one], `CCN1C(=O)C(Cc2ccccc2CN)N=C(c2ccccc2)c2cc(OC)c(OC)cc21` (centres unmarked) [IIcg, 3-(2-aminomethylbenzyl)-7,8-dimethoxy-1-ethyl-5-phenyl-1,3-dihydro-2H-1,4-benzodiazepin-2-one] is 2.4-fold higher in IC50: 2.8 µM for the first, 6.7 µM for the second.

Going from `COc1ccc(C2=NCC(=O)N(C)c3cc(OC)c(OC)cc32)cc1` [IIaw, 7,8-dimethoxy-5-(4-methoxyphenyl)-1-methyl-1,3-dihydro-1,4-benzodiazepin-2-one] to `COc1cc2c(cc1OC)N(C)C(=O)CN=C2c1ccc2[nH]ccc2c1` [IIan, 5-(5-indolyl)-7,8-dimethoxy-1-methyl-1,3-dihydro-1,4-benzodiazepin-2-one], the IC50 falls from 10 µM to 3.6 µM (2.8-fold). The second is the more potent here.

Compared with `CCN1C(=O)C(Cc2ccccc2[N+](=O)[O-])N=C(c2ccccc2)c2cc(OC)c(OC)cc21` (centres unmarked) [IIbh, 7,8-dimethoxy-1-ethyl-3-(2-nitrobenzyl)-5-phenyl-1,3-dihydro-2H-1,4-benzodiazepin-2-one], `CCOc1cc2c(cc1OC)C(c1ccccc1)=NC(Cc1ccccc1C#N)C(=O)N2C` (centres unmarked) [IIdg, 2-[(8-ethoxy-7-methoxy-1-methyl-2-oxo-5-phenyl-2,3-dihydro-1H-1,4-benzodiazepin-3-yl)methyl]benzonitrile] is 2.2-fold lower in IC50: 2.4 µM for the first, 1.1 µM for the second. The second is the more potent here.

With `CCOc1cc2c(cc1OCC)N(CC)C(=O)C(Cc1ccccc1)N=C2c1ccccc1` (centres unmarked) [IIcv, 3-benzyl-7,8-diethoxy-1-ethyl-5-phenyl-1,3-dihydro-2H-1,4-benzodiazepin-2-one] the IC50 was 3.1 µM.

For `CCN1C(=O)CN=C(c2ccc(CCc3ccccc3)cc2)c2cc(OC)c(OC)cc21` [IIbu, 1-ethyl-7,8-dimethoxy-5-[4-(2-phenylethyl)phenyl]-1,3-dihydro-2H-1,4-benzodiazepin-2-one], the IC50 was 12.4 µM and 18.7 µM.
With `CCN1C(=O)C(Cc2ccccc2C#N)N=C(c2ccccc2)c2cc(OC)c(OC)cc21` (centres unmarked) [IIce, 3-(2-cyanobenzyl)-7,8-dimethoxy-1-ethyl-5-phenyl-1,3-dihydro-2H-1,4-benzodiazepin-2-one] the IC50 was 0.88 µM and 1.4 µM.

same assay, conditions: Table 3, formula (II); compound at 10 μM

Going from `COc1cc2c(cc1OC)N(C)C(=O)CN=C2N1CCc2ccccc2C1` [IIav, 7,8-dimethoxy-1-methyl-5-(N-tetrahydro-1,2,3,4-isoquinolyl)-1,3-dihydro-2H-1,4-benzodiazepin-2-one] to `CCCN1C(=O)CN=C(c2ccccc2)c2cc(OC)c(OC)cc21` [IIbe, 7,8-dimethoxy-5-phenyl-1-propyl-1,3-dihydro-2H-1,4-benzodiazepin-2-one], the “PDE4 percentage inhibition at 10 μM” value rises from 15% to 34.7%.

Compared with `COc1ccc2cc(C3=NCC(=O)N(C)c4cc(OC)c(OC)cc43)ccc2c1` [IIap, 7,8-dimethoxy-5-(6-methoxy-2-naphthyl)-1-methyl-1,3-dihydro-1,4-benzodiazepin-2-one], `CCN1C(=O)C(Cc2ccc(Br)cc2)N=C(c2ccccc2)c2cc(OC)c(OC)cc21` (centres unmarked) [IIcd, 3-(4-bromobenzyl)-1-ethyl-7,8-dimethoxy-5-phenyl-1,3-dihydro-2H-1,4-benzodiazepin-2-one] is higher in “PDE4 percentage inhibition at 10 μM” value: 18% for the first, 20.1% for the second.

Going from `CCN1C(=O)C(C(Cc2ccc(Br)cc2)c2ccc(Br)cc2)N=C(c2ccccc2)c2cc(OC)c(OC)cc21` (centres unmarked) [IIde, 3-[1,2-bis(4-bromophenyl)ethyl]-1-ethyl-7,8-dimethoxy-5-phenyl-1,3-dihydro-2H-1,4-benzodiazepin-2-one] to `C=CCC1N=C(c2ccccc2)c2cc(OC)c(OC)cc2N(CC)C1=O` (centres unmarked) [IIbs, 3-allyl-1-ethyl-7,8-dimethoxy-5-phenyl-1,3-dihydro-2H-1,4-benzodiazepin-2-one], the “PDE4 percentage inhibition at 10 μM” value rises from 0% to 38.8%.

For `CCOC(=O)CC1N=C(c2ccccc2)c2cc(OC)c(OC)cc2N(CC)C1=O` (centres unmarked) [IIbv, ethyl (1-ethyl-7,8-dimethoxy-2-oxo-5-phenyl-2,3-dihydro-1H-1,4-benzodiazepin-3-yl)acetate], the “PDE4 percentage inhibition at 10 μM” value was 44.4%.
